Source: patent publication US6608086B2, “Dihydropyridines and new uses thereof” (Synaptic Pharmaceutical Corporation, priority 1993, dated 2003)
Counter-ions that a name gives are not always drawn.

| Structure (SMILES) | melting point |
| --- | --- |
| CC1=C(C(N)=O)C(c2ccc([N+](=O)[O-])cc2)C(C(=O)NCCN2CCC(c3ccccc3)(c3ccccc3)CC2)=C(C)N1 (centres unmarked) (as salt: hydrochloride) (hydrate or solvate) [Example 54, 5-Carboxamide-1,4-dihydro-2,6-dimethyl-4-(4-nitrophenyl)-3-{N-[2-(4,4-diphenylpiperidin-1-yl)ethyl]}carboxamidopyridine hydrochloride hydrate] | 193 to 194 °C |
| COC(=O)C1=C(C)NC(C)=C(C(=O)OCCCN2CCC(c3ccccc3)CC2)C1c1ccc([N+](=O)[O-])cc1 (centres unmarked) (as salt: hydrochloride) (hydrate or solvate) [Example 48, 1,4-Dihydro-5-methazycarbonyl-2,6-dimethyl-4-(4-nitrophenyl)-3-[3-(4-phenylpiperidin-1-yl)propoxy]}carbonylpyridine hydrochloride hydrate] | 139 to 140 °C |
| COC(=O)C1=C(C)NC(C)=C(C(=O)NCCCCN2CCC(c3ccccc3)CC2)C1c1ccc([N+](=O)[O-])cc1 (centres unmarked) (as salt: hydrochloride) (hydrate or solvate) [Example 3, 1,4-Dihydro-3-methoxycarbonyl-2,6-dimethyl-4-(4-nitrophenyl)-5-{N-[4-(4-phenylpiperidin-1-yl)butyl]}carbozamidopyridine hydrochloride hydrate] | 136 to 137 °C |
| CC1=C(C#N)C(c2ccc([N+](=O)[O-])cc2)C(C(=O)NCCCN2CCC(c3ccccc3)(c3ccccc3)CC2)=C(C)N1 (centres unmarked) (as salt: hydrochloride) [Example 37] | 252 °C (dec.) |
| CCC1=C(C(=O)NCCCN2CCC(c3ccccc3)(c3ccccc3)CC2)C(c2ccc([N+](=O)[O-])cc2)C(C(=O)OCc2ccccc2)=C(C)N1 (centres unmarked) (as salt: hydrochloride) (hydrate or solvate) [Example 4, 5-Benzyloxycarbonyl-2-ethyl-1,4-dihydro-6-methyl-4-(4-nitrophenyl)-3-(N-(3-(4,4-diphenylpiperidin-1-yl)propyl)carboxamido) pyridine, Hydrochloride Salt, Hydrate] | 195 to 198 °C (dec.) |
| COc1cc2c(cc1OC)CN(CCCNC(=O)C1=C(C)NC(C)=C(C(N)=O)C1c1ccc([N+](=O)[O-])cc1)CC2 (centres unmarked) (as salt: hydrochloride) [Example 58, 5-Carboxamido-1,4-dihydro-3-{N-[3-(1,2,3,4-tetrahydro-6,7-dimethoxyisoquinolin-2-yl)propyl]}carboxamido-2,6-dimethyl-4-(4-nitrophenyl)pyridine hydrochloride] | 180 to 181 °C |
| CCC1=C(C(=O)NCCCN2CCC(c3ccccc3)CC2)C(c2ccc([N+](=O)[O-])cc2)C(C(=O)OC)=C(C)N1 (centres unmarked) (as salt: hydrochloride) (hydrate or solvate) [Example 74, 2-Ethyl-1,4-dihydro-5-methoxycarbonyl-6-methyl-4-(4-nitro)phenyl-3-(N-(3-(4-phenylpiperidin-1-yl)propyl)) carboxamidopyridine hydrochloride hydrate] | 209 to 214 °C (dec.) |
| COC(=O)C1=C(C)NC(C)=C(C(=O)OCCCN2CCCCC2)C1c1ccc([N+](=O)[O-])cc1 (centres unmarked) (as salt: hydrochloride) (hydrate or solvate) [Example 50, 1,4-Dihydro-5-methoxycarbonyl-2,6-dimethyl-4-(4-nitrophenyl)-3-[3-(piperidin-1-yl)propoxy]carbonylpyridine hydrochloride etherate] | 128 to 129 °C |
| COC(=O)C1=C(C)NC(c2ccccc2)=C(C(=O)NCCCN2CCC(c3ccccc3)(c3ccccc3)CC2)C1c1ccc([N+](=O)[O-])cc1 (centres unmarked) (as salt: hydrochloride) (hydrate or solvate) [Example 78, 1,4-Dihydro-5-methoxycarbonyl-6-methyl-4-(4-nitro)phenyl-2-phenyl-3-(N-(3-(4,4-diphenylpiperidin-1-yl)propyl))carboxamidopyridine hydrochloride hydrate] | 210 to 215 °C (dec.) |
| CCOC(=O)C1=C(CC(=O)NCCCN2CCC(c3ccccc3)(c3ccccc3)CC2)NC(C)=C(C(=O)OC)C1c1ccc([N+](=O)[O-])cc1 (centres unmarked) (as salt: fumarate) [Example 89, 3-Ethoxycarbonyl-1,4-dihydro-5-methoxycarbonyl-6-methyl-4-(4-nitro)phenyl-2-(N-(3-(4,4,-diphenylpiperidin-1-yl)propyl)carboxamido)methylpyridine, fumarate salt] | 134 to 137 °C |
| COC(=O)C1=C(C)NC(C)=C(C(=O)NCCCN2CCc3ccccc3C2)C1c1ccc([N+](=O)[O-])cc1 (centres unmarked) (as salt: hydrochloride) (hydrate or solvate) [Example 59, 1,4-Dihydro-5-{N-[3-(1,2,3,4-tetrahydroisoquinolin-2-yl)propyl]}carboxamido-3-methoxycarbonyl-2,6-dimethyl-4-(4-nitrophenyl)pyridine hydrochloride hydrate] | 145 to 146 °C |
| CCC1=C(C(=O)NCCCN2CCC(c3ccccc3)(c3ccccc3)CC2)C(c2ccc([N+](=O)[O-])cc2)C(C(=O)NC)=C(COCCN=[N+]=[N-])N1 (centres unmarked) (as salt: hydrochloride) [Example 151, 2-((2-Azidoethyl)oxy)methyl-6-ethyl-1,4-dihydro-3-(N-methyl)carboxamido-4-(4-nitro)phenyl-5-(N-(3-(4,4-diphenylpiperidin-1-yl)propyl))carboxamidopyridine] | 200 °C (dec.) |
| CCC1=C(C(N)=O)C(c2ccc([N+](=O)[O-])cc2)C(C(=O)NCCCN2CCC(C)(c3ccccc3)CC2)=C(CC)N1 (centres unmarked) (as salt: hydrochloride) (hydrate or solvate) [Example 106, 5-Carboxamido-2,6-diethyl-1,4-dihydro-3-{N-[3-(4-Methyl-4-phenylpiperidin-1-yl)propyl]}carboxamido-4-(4-nitrophenyl)pyridine hydrochloride hydrate] | 166 °C (dec.) |
| CCC1=C(C(N)=O)C(c2ccc([N+](=O)[O-])cc2)C(C(=O)NCCCN2CCC3(CC2)C(=O)NCN3c2ccccc2)=C(CC)N1 (centres unmarked) (as salt: hydrochloride) (hydrate or solvate) [Example 105, 5-Carboxamido-2,6-diethyl-1,4-dihydro-4-(4-nitrophenyl)-3-{N-[3-(1-phenyl-4-oxo-1,3,8-triazaspiro[4.3]decan-8-yl)propyl]}carboxamidopyridine hydrochloride hydrate] | 187 °C (dec.) |
| CC(=O)C1=C(C)NC(C)=C(C(=O)NCCCN2CCC(c3ccccc3)(c3ccccc3)CC2)C1c1ccc([N+](=O)[O-])cc1 (centres unmarked) (as salt: hydrochloride) (hydrate or solvate) [Example 47, 5-Acetyl-1,4-dihydro-2,6-dimethyl-4-(4-nitrophenyl)-3-{N-[3-(4,4-diphenylpiperidin-1-yl)propyl]}carboxamidopyridine] | 173 to 174 °C |
| COC(=O)C1=C(C)NC(C)=C(C(=O)NCCCN2CCCCC2)C1c1ccc([N+](=O)[O-])cc1 (centres unmarked) (as salt: hydrochloride) (hydrate or solvate) [Example 51, 1,4-Dihydro-3-methoxycarbonyl-2,6-dimethyl-4-(4-nitrophenyl)-5-{N-[3-(piperidin-1-yl)propyl]}carboxamidopyridine hydrochloride etherate] | 150 to 150.5 °C |
| CCC1=C(C(N)=O)C(c2ccc([N+](=O)[O-])cc2)C(C(=O)NCCCN2CCC(C#N)(c3ccccc3)CC2)=C(CC)N1 (racemic) (as salt: hydrochloride) (hydrate or solvate) [(±)-102, 5-Carboxamido-3-{N-[(4-cyano-4-phenylpiperidin-1-ly)propyl]carboxamido-2,6-diethyl-1,4-dihydro-4-(4-nitrophenyl)pyridine hydrochloride hydrate] | 230 °C (dec.) |
| CCC1=C(C(N)=O)C(c2ccc([N+](=O)[O-])cc2)C(C(=O)NCCCN2CCN(c3ccccc3)CC2)=C(CC)N1 (centres unmarked) (as salt: hydrochloride) (hydrate or solvate) [Example 104, 5-Carboxamido-2,6-diethyl-1,4-dihydro-4-(4-nitrophenyl)-3-{N-[3-(4-phenylpiperazin-1-yl)propyl]}carboxamido-pyridine hydrochloride hydrate] | 160 °C (dec.) |
| COC(=O)C1=C(C)NC(c2ccoc2)=C(C(=O)NCCCN2CCC(c3ccccc3)CC2)C1c1ccc([N+](=O)[O-])cc1 (centres unmarked) (as salt: hydrochloride) (hydrate or solvate) [Example 65, 2-(Furan-3-yl)-1,4-dihydro-5-methoxycarbonyl-6-methyl-4-(4-nitrophenyl)-5-{N-[3-(4-phenylpiperidin-1-yl)propyl]}carboxamidopyridine hydrochloride hydrate] | 205 to 210 °C (dec.) |
| CCC1=C(C(=O)NCCCN2CCC(c3ccccc3)(c3ccccc3)CC2)C(c2ccc([N+](=O)[O-])cc2)C(C(N)=O)=C(C)N1 (centres unmarked) (as salt: hydrochloride) [Example 81, 5-carboxamido-2-ethyl-1,4-dihydro-6-methyl-4-(4-nitro)phenyl-3-(N-(3-(4,4-diphenylpiperidin-1-yl)propyl))carboxamidopyridine hydrochloride] | 243 to 248 °C (dec.) |
| CCC1=C(C(=O)NC2CCN(Cc3ccccc3)CC2)C(c2ccc([N+](=O)[O-])cc2)C(C(=O)OC)=C(C)N1 (centres unmarked) (as salt: hydrochloride) [Example 75, 2-Ethyl-1,4-dihydro-5-methoxycarbonyl-6-methyl-4-(4-nitro)phenyl-3-(N-(N-phenylmethyl)piperidin-4-yl)carboxamidopyridine hydrochloride] | 221 to 224 °C (dec.) |
| COc1ccc(C2(c3ccccc3)CCN(CCCNC(=O)C3=C(C)NC(C)=C(C(N)=O)C3c3ccc([N+](=O)[O-])cc3)CC2)cc1 (centres unmarked) (as salt: hydrochloride) [Example 98, 5-Carboxamido-1,4-dihydro-3-{N-[3-(4-(4-methoxyphenyl)-4-phenylpiperidin-1-yl)propyl]}carboxamido-2,6-dimethyl-4-(4-nitrophenyl)pyridine hydrochloride] | 185 °C (dec.) |
| CCC1=C(C(=O)NCCCN2CCC(c3ccccc3)(c3ccccc3)CC2)C(c2ccc(N)cc2)C(C(=O)OC)=C(C)N1 (centres unmarked) (as salt: salt) [Example 114, 4-(4-Aminophenyl)-2-ethyl-1,4-dihydro-5-methoxycarbonyl-6-methyl-3-(N-(3-(4,4-diphenylpiperidin-1-yl)propyl)carboxamido)-pyridine] | 169 to 172 °C (dec.) |
